Test results as given in patent US20120324604A1, “PESTICIDAL MIXTURES CONTAINING ISOXAZOLINE DERIVATIVES AND A FUNGICIDE” (priority 2010, published 2012).
“And” between values parts separate entries of the source, which are not always exact repeats. Equal entries are not always repeated.

Key:
Format in all cases: cell-based
[1] = system: Glomerella lagenarium (syn. Colletotrichum lagenarium); assay: Glomerella lagenarium (Anthracnose of Cucurbits) growth inhibition, microtiter plate, photometric; details: alone
Protocol: Glomerella lagenarium (syn. Colletotrichum lagenarium), Anthracnose of Cucurbits:
(§1) Conidia of the fungus from cryogenic storage were directly mixed into nutrient broth (potato dextrose broth). After placing a (DMSO) solution of the test compounds into a microtiter plate (96-well format) the nutrient broth containing the fungal spores was added.

Rhizoctonia solani = Rhizoctonia solani (Foot Rot, Damping-Off) growth inhibition, microtiter plate, photometric
Protocol: Rhizoctonia solani (Foot Rot, Damping-Off):
Mycelial fragments of the fungus from cryogenic storage were directly mixed into nutrient broth (potato dextrose broth). After placing a (DMSO) solution of the test compounds into a microtiter plate (96-well format) the nutrient broth containing the fungal spores was added.

Septoria tritici = Septoria tritici (Leaf Blotch) growth inhibition, microtiter plate, photometric
Protocol: Septoria tritici (Leaf Blotch):
as §1

Pythium ultimum = Pythium ultimum (Damping Off) growth inhibition, microtiter plate, photometric
Protocol: Pythium ultimum (Damping Off):
Mycelial fragments of the fungus, prepared from a fresh liquid culture, were directly mixed into nutrient broth (potato dextrose broth). After placing a (DMSO) solution of the test compounds into a microtiter plate (96-well format) the nutrient broth containing the fungal spores was added.

Gaeumannomyces graminis = Gaeumannomyces graminis growth inhibition, microtiter plate, photometric
Protocol: Mycelial fragments of the fungus from cryogenic storage were directly mixed into nutrient broth (potato dextrose broth). After placing a (DMSO) solution of the test compounds into a microliter plate (96-well format) the nutrient broth containing the fungal spores was added.

[2] = system: Mycosphaerella arachidis (syn. Cercospora arachidicola); assay: Mycosphaerella arachidis (Brown Leaf Spot of Groundnut) growth inhibition, microtiter plate, photometric; details: alone
Protocol: Mycosphaerella arachidis (syn. Cercospora arachidicola), Brown Leaf Spot of Groundnut (Peanut):
as §1

Fusarium culmorum = Fusarium culmorum (Root Rot) growth inhibition, microtiter plate, photometric
Protocol: Fusarium culmorum (Root Rot):
as §1

Compound: N#Cc1c(Cl)c(Cl)c(Cl)c(C#N)c1Cl [Chlorothalonil, reference compound]
- AVERAGE DEAD IN % ([1]; 0.25 ppm AI): 50% and 90%
- AVERAGE DEAD IN % ([1]; 0.5 ppm AI): 70%
- AVERAGE DEAD IN % (Rhizoctonia solani; applied alone, 0.5 ppm AI): 70%
- AVERAGE DEAD IN % (Rhizoctonia solani; applied alone, 1 ppm AI): 90%
- AVERAGE DEAD IN % (Rhizoctonia solani; single compound at 1 ppm AI): 0%
- AVERAGE DEAD IN % (Rhizoctonia solani; single compound at 2 ppm AI): 0%
- AVERAGE DEAD IN % (Septoria tritici; 0.25 ppm AI, alone): 0%
- AVERAGE DEAD IN % (Septoria tritici; 0.5 ppm AI, alone): 50%
- AVERAGE DEAD IN % Chlorothalonil (Septoria tritici; Chlorothalonil alone, 0.03125 ppm AI): 0%
- AVERAGE DEAD IN % Chlorothalonil (Septoria tritici; Chlorothalonil alone, 0.0625 ppm AI): 70%
- AVERAGE DEAD IN % Chlorothalonil (Septoria tritici; Chlorothalonil alone, 0.25 ppm AI): 20%
- AVERAGE DEAD IN % (Septoria tritici; alone, 1 ppm AI): 70%
- AVERAGE DEAD IN % (Pythium ultimum; single compound at 0.25 ppm AI): 0%
- AVERAGE DEAD IN % (Pythium ultimum; single compound at 0.5 ppm AI): 0%
- AVERAGE DEAD IN % (Pythium ultimum; single compound at 1 ppm AI): 0%
- AVERAGE DEAD IN % (Gaeumannomyces graminis; single compound at 0.25 ppm AI): 0%
- AVERAGE DEAD IN % (Gaeumannomyces graminis; single compound at 1 ppm AI): 50% and 100% and 90%
- AVERAGE DEAD IN % (Gaeumannomyces graminis; single compound at 2 ppm AI): 90% and 100%
- AVERAGE DEAD IN % ([2]; 0.125 ppm AI): 20%
- AVERAGE DEAD IN % ([2]; 0.5 ppm AI): 70%
- AVERAGE DEAD IN % ([2]; 0.25 PPM AI): 20%
- AVERAGE DEAD IN % ([2]; 0.5 PPM AI): 100% and 70%
- AVERAGE DEAD IN % (Fusarium culmorum; alone, 0.5 PPM AI): 0%

Compound: Cn1cc(C(=O)Nc2cccc3c2C2CCC3C2=C(Cl)Cl)c(C(F)F)n1 (stereo not shown) [COMPOUND III]
- AVERAGE DEAD IN % ([1]; 0.0078125 ppm AI): 0%
- AVERAGE DEAD IN % ([1]; 0.015625 ppm AI): 0%
- AVERAGE DEAD IN % ([1]; 0.125 ppm AI): 50%
- AVERAGE DEAD IN % (Rhizoctonia solani; applied alone, 0.03125 ppm AI): 90%
- AVERAGE DEAD IN % (Septoria tritici; 0.125 ppm AI, alone): 20%
- AVERAGE DEAD IN % (Septoria tritici; 0.25 ppm AI, alone): 70% and 50%
- AVERAGE DEAD IN % (Septoria tritici; 0.5 ppm AI, alone): 90%
- AVERAGE DEAD IN % COMPOUND III (Septoria tritici; COMPOUND III alone, 0.0078125 ppm AI): 0%
- AVERAGE DEAD IN % COMPOUND III (Septoria tritici; COMPOUND III alone, 0.015625 ppm AI): 0%
- AVERAGE DEAD IN % COMPOUND III (Septoria tritici; COMPOUND III alone, 0.03125 ppm AI): 0%
- AVERAGE DEAD IN % COMPOUND III (Septoria tritici; COMPOUND III alone, 0.0625 ppm AI): 0%
- AVERAGE DEAD IN % COMPOUND III (Septoria tritici; COMPOUND III alone, 0.125 ppm AI): 20%
- AVERAGE DEAD IN % COMPOUND III (Septoria tritici; COMPOUND III alone, 0.25 ppm AI): 50% and 70%
- AVERAGE DEAD IN % COMPOUND III (Septoria tritici; COMPOUND III alone, 0.5 ppm AI): 70%
- AVERAGE DEAD IN % COMPOUND III (Septoria tritici; COMPOUND III alone, 1 ppm AI): 90%
- AVERAGE DEAD IN % (Gaeumannomyces graminis; single compound at 0.00390625 ppm AI): 0%
- AVERAGE DEAD IN % (Gaeumannomyces graminis; single compound at 0.0078125 ppm AI): 0%
- AVERAGE DEAD IN % (Gaeumannomyces graminis; single compound at 0.0625 ppm AI): 70% and 90%
- AVERAGE DEAD IN % (Gaeumannomyces graminis; single compound at 0.125 ppm AI): 90%
- AVERAGE DEAD IN % (Gaeumannomyces graminis; single compound at 0.25 ppm AI): 100%
- AVERAGE DEAD IN % (Gaeumannomyces graminis; single compound at 0.5 ppm AI): 100%
- AVERAGE DEAD IN % (Gaeumannomyces graminis; single compound at 1 ppm AI): 100%
- AVERAGE DEAD IN % (Gaeumannomyces graminis; single compound at 2 ppm AI): 100%
- AVERAGE DEAD IN % ([2]; 0.0078125 ppm AI): 0%
- AVERAGE DEAD IN % ([2]; 0.015625 ppm AI): 0%
- AVERAGE DEAD IN % ([2]; 0.03125 ppm AI): 20%
- AVERAGE DEAD IN % ([2]; 0.0625 ppm AI): 90%
- AVERAGE DEAD IN % ([2]; 0.03125 PPM AI): 70% and 50%
- AVERAGE DEAD IN % ([2]; 0.0625 PPM AI): 100% and 70% and 90%
- AVERAGE DEAD IN % ([2]; 0.125 PPM AI): 90%

Compound: CC(C1CC1)C(O)(Cn1cncn1)c1ccc(Cl)cc1 (stereo not shown) [Cyproconazole]
- AVERAGE DEAD IN % (Rhizoctonia solani; applied alone, 0.25 ppm AI): 20%
- AVERAGE DEAD IN % (Rhizoctonia solani; applied alone, 2 ppm AI): 70% and 100%
- AVERAGE DEAD IN % (Septoria tritici; 0.25 ppm AI, alone): 20%
- AVERAGE DEAD IN % (Septoria tritici; 0.5 ppm AI, alone): 50%
- AVERAGE DEAD IN % (Septoria tritici; 1 ppm AI, alone): 70%
- AVERAGE DEAD IN % (Septoria tritici; 2 ppm AI, alone): 90%
- AVERAGE DEAD IN % Cyproconazole (Septoria tritici; Cyproconazole alone, 0.5 ppm AI): 50%
- AVERAGE DEAD IN % Cyproconazole (Septoria tritici; Cyproconazole alone, 1 ppm AI): 70%
- AVERAGE DEAD IN % Cyproconazole (Septoria tritici; Cyproconazole alone, 2 ppm AI): 90%
- AVERAGE DEAD IN % (Septoria tritici; alone, 0.25 ppm AI): 0%
- AVERAGE DEAD IN % (Septoria tritici; alone, 0.5 ppm AI): 50%
- AVERAGE DEAD IN % (Septoria tritici; alone, 1 ppm AI): 70%
- AVERAGE DEAD IN % (Septoria tritici; alone, 2 ppm AI): 70%
- AVERAGE DEAD IN % (Gaeumannomyces graminis; single compound at 0.25 ppm AI): 20%
- AVERAGE DEAD IN % (Gaeumannomyces graminis; single compound at 0.5 ppm AI): 50% and 90%
- AVERAGE DEAD IN % (Gaeumannomyces graminis; single compound at 1 ppm AI): 70%
- AVERAGE DEAD IN % (Gaeumannomyces graminis; single compound at 2 ppm AI): 90%
- AVERAGE DEAD IN % ([2]; 0.125 ppm AI): 70%
- AVERAGE DEAD IN % ([2]; 0.0625 PPM AI): 0%
- AVERAGE DEAD IN % ([2]; 0.125 PPM AI): 20%
- AVERAGE DEAD IN % ([2]; 0.25 PPM AI): 70% and 100%
- AVERAGE DEAD IN % ([2]; 0.5 PPM AI): 100%
- AVERAGE DEAD IN % (Fusarium culmorum; alone, 2 PPM AI): 20%

Compound: CC1COC(Cn2cncn2)(c2ccc(Oc3ccc(Cl)cc3)cc2Cl)O1 (stereo not shown) [Difenoconazole]
- AVERAGE DEAD IN % ([1]; 0.5 ppm AI): 20%
- AVERAGE DEAD IN % ([1]; 1 ppm AI): 20%
- AVERAGE DEAD IN % (Rhizoctonia solani; applied alone, 0.25 ppm AI): 20%
- AVERAGE DEAD IN % (Rhizoctonia solani; applied alone, 0.5 ppm AI): 50% and 70%
- AVERAGE DEAD IN % (Rhizoctonia solani; applied alone, 1 ppm AI): 50% and 100%
- AVERAGE DEAD IN % (Rhizoctonia solani; applied alone, 2 ppm AI): 100%
- AVERAGE DEAD IN % (Septoria tritici; 0.03125 ppm AI, alone): 50%
- AVERAGE DEAD IN % (Septoria tritici; 0.0625 ppm AI, alone): 70%
- AVERAGE DEAD IN % (Septoria tritici; 0.125 ppm AI, alone): 90%
- AVERAGE DEAD IN % (Septoria tritici; 0.25 ppm AI, alone): 90%
- AVERAGE DEAD IN % (Septoria tritici; 0.5 ppm AI, alone): 90%
- AVERAGE DEAD IN % (Septoria tritici; 1 ppm AI, alone): 90%
- AVERAGE DEAD IN % (Septoria tritici; 2 ppm AI, alone): 90%
- AVERAGE DEAD IN % Difenoconazole (Septoria tritici; Difenoconazole alone, 0.0078125 ppm AI): 0%
- AVERAGE DEAD IN % Difenoconazole (Septoria tritici; Difenoconazole alone, 0.015625 ppm AI): 0%
- AVERAGE DEAD IN % Difenoconazole (Septoria tritici; Difenoconazole alone, 0.0625 ppm AI): 50% and 70%
- AVERAGE DEAD IN % Difenoconazole (Septoria tritici; Difenoconazole alone, 0.125 ppm AI): 70% and 90%
- AVERAGE DEAD IN % Difenoconazole (Septoria tritici; Difenoconazole alone, 0.25 ppm AI): 70% and 90%
- AVERAGE DEAD IN % Difenoconazole (Septoria tritici; Difenoconazole alone, 0.5 ppm AI): 90%
- AVERAGE DEAD IN % Difenoconazole (Septoria tritici; Difenoconazole alone, 1 ppm AI): 90%
- AVERAGE DEAD IN % Difenoconazole (Septoria tritici; Difenoconazole alone, 2 ppm AI): 90%
- AVERAGE DEAD IN % (Gaeumannomyces graminis; single compound at 0.25 ppm AI): 0%
- AVERAGE DEAD IN % (Gaeumannomyces graminis; single compound at 0.5 ppm AI): 0%
- AVERAGE DEAD IN % (Gaeumannomyces graminis; single compound at 1 ppm AI): 20%
- AVERAGE DEAD IN % (Gaeumannomyces graminis; single compound at 2 ppm AI): 90%
- AVERAGE DEAD IN % ([2]; 0.00390625 ppm AI): 0%
- AVERAGE DEAD IN % ([2]; 0.0078125 ppm AI): 50%
- AVERAGE DEAD IN % ([2]; 0.00390625 PPM AI): 0%
- AVERAGE DEAD IN % ([2]; 0.015625 PPM AI): 50% and 90%
- AVERAGE DEAD IN % (Fusarium culmorum; alone, 0.25 PPM AI): 20%
- AVERAGE DEAD IN % (Fusarium culmorum; alone, 0.5 PPM AI): 20%
- AVERAGE DEAD IN % (Fusarium culmorum; alone, 1 PPM AI): 20%
- AVERAGE DEAD IN % (Fusarium culmorum; alone, 2 PPM AI): 90%
- AVERAGE DEAD IN % (Fusarium culmorum; single compound, 0.25 PPM AI, 48 hrs, 24° C.): 20%
- AVERAGE DEAD IN % (Fusarium culmorum; single compound, 0.5 PPM AI, 48 hrs, 24° C.): 20%
- AVERAGE DEAD IN % (Fusarium culmorum; single compound, 1 PPM AI, 48 hrs, 24° C.): 70%
